{
  "source": "patent US8252832B2",
  "about": "“Kinesin inhibitors as cancer therapeutics” (Novartis AG, priority 2007, dated 2012)",
  "assay_in_all_cases": "CellTiter-Glo, NCI60 panel",
  "format_in_all_cases": "cell-based",
  "key": {"[1]": {"tested_on": "UO-31", "details": "Renal; for GI50: Homo sapiens", "method_in_brief": "(§1)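 NCI-60 tumour lines exposed to compound from DMSO dilutions made at 1000× final, with suspension lines dosed right after plating and adherent lines after 24 h attachment. Cells were incubated 48 h at 37° C, then ATP was measured by luminescence. Reported: concentration for 50% growth reduction.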"}, "[2]": {"tested_on": "A498", "details": "Renal; for GI50: Homo sapiens", "method_in_brief": "as §1"}, "[3]": {"tested_on": "NCI-H522", "details": "NSCL; for GI50: Homo sapiens", "method_in_brief": "as §1"}, "[4]": {"tested_on": "UACC-257", "details": "Melanoma; for GI50: Homo sapiens", "method_in_brief": "as §1"}, "[5]": {"tested_on": "OVCAR-4", "details": "Ovarian; for GI50: Homo sapiens", "method_in_brief": "as §1"}, "[6]": {"tested_on": "A549", "details": "NSCL; for GI50: Homo sapiens", "method_in_brief": "as §1"}, "[7]": {"tested_on": "HOP-92", "details": "NSCL; for GI50: Homo sapiens", "method_in_brief": "as §1"}, "[8]": {"tested_on": "NCI-H460", "details": "NSCL; for GI50: Homo sapiens", "method_in_brief": "as §1"}, "[9]": {"tested_on": "MALME-3M", "details": "Melanoma; for GI50: Homo sapiens", "method_in_brief": "as §1"}, "[10]": {"tested_on": "KM12", "details": "Colon; for GI50: Homo sapiens", "method_in_brief": "as §1"}, "[11]": {"tested_on": "SK-OV-3", "details": "Ovarian; for GI50: Homo sapiens", "method_in_brief": "as §1"}, "[12]": {"tested_on": "OVCAR-5", "details": "Ovarian; for GI50: Homo sapiens", "method_in_brief": "as §1"}, "[13]": {"tested_on": "EKVX", "details": "NSCL; for GI50: Homo sapiens", "method_in_brief": "as §1"}, "[14]": {"tested_on": "MOLT-4", "details": "Leukemia; for GI50: Homo sapiens", "method_in_brief": "as §1"}, "[15]": {"tested_on": "ACHN", "details": "Renal; for GI50: Homo sapiens", "method_in_brief": "as §1"}, "[16]": {"tested_on": "RXF 393", "details": "Renal; for GI50: Homo sapiens", "method_in_brief": "as §1"}, "[17]": {"tested_on": "MCF7", "details": "Breast; for GI50: Homo sapiens", "method_in_brief": "as §1"}, "[18]": {"details": "GI50 in nM, read-out: Log(GI50) (converted)"}},
  "note": "Like-named read-outs stand apart in the source and are kept apart here.",
  "data": [
    {"compound": "CC(C)(C)[C@H](c1nc(-c2cc(F)ccc2F)cn1Cc1ccccc1)N(CC[C@H](N)CF)C(=O)CO", "note": "[Compound IIa]", "values": [
      {"measurement": "GI50", "setting": "[1]; [18]", "result": 10, "unit": "nM"},
      {"measurement": "GI50", "setting": "[1]; read-out: GI50", "result": 10, "unit": "nM"},
      {"measurement": "Differential vs mean Log(GI50)", "setting": "[1]", "result": "−0.669"},
      {"measurement": "GI50", "setting": "[2]; [18]", "result": 10, "unit": "nM"},
      {"measurement": "GI50", "setting": "[2]; read-out: GI50", "result": 10, "unit": "nM"},
      {"measurement": "Differential vs mean Log(GI50)", "setting": "[2]", "result": "−0.669"},
      {"measurement": "GI50", "setting": "[3]; [18]", "result": 0.166, "unit": "nM"},
      {"measurement": "GI50", "setting": "[3]; read-out: GI50", "result": 0.166, "unit": "nM"},
      {"measurement": "Differential vs mean Log(GI50)", "setting": "[3]", "result": 1.111},
      {"measurement": "GI50", "setting": "[4]; [18]", "result": 10, "unit": "nM"},
      {"measurement": "GI50", "setting": "[4]; read-out: GI50", "result": 10, "unit": "nM"},
      {"measurement": "Differential vs mean Log(GI50)", "setting": "[4]", "result": "−0.669"},
      {"measurement": "GI50", "setting": "[5]; [18]", "result": 10, "unit": "nM"},
      {"measurement": "GI50", "setting": "[5]; read-out: GI50", "result": 10, "unit": "nM"},
      {"measurement": "Differential vs mean Log(GI50)", "setting": "[5]", "result": "−0.669"},
      {"measurement": "GI50", "setting": "[6]; [18]", "result": 10, "unit": "nM"},
      {"measurement": "GI50", "setting": "[6]; read-out: GI50", "result": 10, "unit": "nM"},
      {"measurement": "Differential vs mean Log(GI50)", "setting": "[6]", "result": "−0.669"},
      {"measurement": "GI50", "setting": "[7]; [18]", "result": 10, "unit": "nM"},
      {"measurement": "GI50", "setting": "[7]; read-out: GI50", "result": 10, "unit": "nM"},
      {"measurement": "Differential vs mean Log(GI50)", "setting": "[7]", "result": "−0.669"},
      {"measurement": "GI50", "setting": "[8]; [18]", "result": 0.378, "unit": "nM"},
      {"measurement": "GI50", "setting": "[8]; read-out: GI50", "result": 0.378, "unit": "nM"},
      {"measurement": "Differential vs mean Log(GI50)", "setting": "[8]", "result": 0.754},
      {"measurement": "GI50", "setting": "[9]; [18]", "result": 10, "unit": "nM"},
      {"measurement": "GI50", "setting": "[9]; read-out: GI50", "result": 10, "unit": "nM"},
      {"measurement": "Differential vs mean Log(GI50)", "setting": "[9]", "result": "−0.669"},
      {"measurement": "Differential vs mean Log(GI50)", "setting": "[10]", "result": 0.705},
      {"measurement": "GI50", "setting": "[10]; [18]", "result": 0.423, "unit": "nM"},
      {"measurement": "GI50", "setting": "[10]; read-out: GI50", "result": 0.423, "unit": "nM"},
      {"measurement": "GI50", "setting": "[11]; [18]", "result": 0.421, "unit": "nM"},
      {"measurement": "GI50", "setting": "[11]; read-out: GI50", "result": 0.421, "unit": "nM"},
      {"measurement": "Differential vs mean Log(GI50)", "setting": "[11]", "result": 0.707},
      {"measurement": "GI50", "setting": "[12]; [18]", "result": 10, "unit": "nM"},
      {"measurement": "GI50", "setting": "[12]; read-out: GI50", "result": 10, "unit": "nM"},
      {"measurement": "Differential vs mean Log(GI50)", "setting": "[12]", "result": "−0.669"},
      {"measurement": "GI50", "setting": "[13]; [18]", "result": 10, "unit": "nM"},
      {"measurement": "GI50", "setting": "[13]; read-out: GI50", "result": 10, "unit": "nM"},
      {"measurement": "Differential vs mean Log(GI50)", "setting": "[13]", "result": "−0.669"},
      {"measurement": "GI50", "setting": "[14]; [18]", "result": 0.331, "unit": "nM"},
      {"measurement": "GI50", "setting": "[14]; read-out: GI50", "result": 0.331, "unit": "nM"},
      {"measurement": "Differential vs mean Log(GI50)", "setting": "[14]", "result": 0.811},
      {"measurement": "GI50", "setting": "[15]; [18]", "result": 10, "unit": "nM"},
      {"measurement": "GI50", "setting": "[15]; read-out: GI50", "result": 10, "unit": "nM"},
      {"measurement": "Differential vs mean Log(GI50)", "setting": "[15]", "result": "−0.669"},
      {"measurement": "GI50", "setting": "[16]; [18]", "result": 10, "unit": "nM"},
      {"measurement": "GI50", "setting": "[16]; read-out: GI50", "result": 10, "unit": "nM"},
      {"measurement": "Differential vs mean Log(GI50)", "setting": "[16]", "result": "−0.669"},
      {"measurement": "Differential vs mean Log(GI50)", "setting": "[17]", "result": "−0.669"},
      {"measurement": "GI50", "setting": "[17]; [18]", "result": 10, "unit": "nM"},
      {"measurement": "GI50", "setting": "[17]; read-out: GI50", "result": 10, "unit": "nM"}
    ]}
  ]
}
